Assays:
[1] = biological target: T1, Cholesterol 24-hydroxylase (CH24H) (Macaca mulatta, UniProt A0A5F7ZPE8); experiment: in vivo PET enzyme occupancy, displacement of […]T-008 in rhesus brain
T1 construct: gene CYP46A1

[2] = biological target: T2, Cholesterol 24-hydroxylase (CH24H) (Mus musculus, UniProt Q9WVK8); experiment: [3H]T-008 saturation radioligand binding; autoradiography in WT vs CH24H KO mouse brain sections
T2 construct: gene Cyp46a1
T2 sequence (Q9WVK8 whole entry): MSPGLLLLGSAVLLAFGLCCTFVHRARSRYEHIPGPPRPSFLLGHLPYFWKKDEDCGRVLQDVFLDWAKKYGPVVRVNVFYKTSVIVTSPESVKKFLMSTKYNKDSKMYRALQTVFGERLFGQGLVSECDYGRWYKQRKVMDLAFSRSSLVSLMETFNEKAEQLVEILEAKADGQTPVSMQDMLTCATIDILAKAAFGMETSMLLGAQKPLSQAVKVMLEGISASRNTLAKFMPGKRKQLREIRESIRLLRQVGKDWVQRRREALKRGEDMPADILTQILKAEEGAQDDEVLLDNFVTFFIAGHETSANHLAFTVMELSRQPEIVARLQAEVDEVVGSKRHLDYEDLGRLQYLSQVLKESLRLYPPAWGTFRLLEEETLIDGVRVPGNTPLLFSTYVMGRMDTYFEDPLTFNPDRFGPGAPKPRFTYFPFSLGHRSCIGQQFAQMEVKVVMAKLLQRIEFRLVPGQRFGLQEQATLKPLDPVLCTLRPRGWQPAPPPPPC

T1 sequence (A0A5F7ZPE8 1-500): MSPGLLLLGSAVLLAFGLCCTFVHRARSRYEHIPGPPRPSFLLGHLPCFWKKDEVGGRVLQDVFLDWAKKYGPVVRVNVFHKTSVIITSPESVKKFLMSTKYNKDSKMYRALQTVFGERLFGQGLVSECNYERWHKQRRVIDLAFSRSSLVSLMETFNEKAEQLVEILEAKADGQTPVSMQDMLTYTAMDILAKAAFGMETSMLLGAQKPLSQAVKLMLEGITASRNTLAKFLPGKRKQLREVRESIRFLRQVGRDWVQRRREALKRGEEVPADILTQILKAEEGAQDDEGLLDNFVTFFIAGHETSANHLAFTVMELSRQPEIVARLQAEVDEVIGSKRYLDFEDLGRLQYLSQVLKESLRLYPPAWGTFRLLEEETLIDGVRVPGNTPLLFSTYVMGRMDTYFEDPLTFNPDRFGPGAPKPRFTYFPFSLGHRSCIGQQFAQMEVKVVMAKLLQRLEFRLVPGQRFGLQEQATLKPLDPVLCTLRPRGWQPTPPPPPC

Row | Structure (SMILES) | EC50 [1] | Kd [2]
1 | O=C(c1cccnc1-c1ccncc1)N1CCC(O)(Cc2ccccc2)CC1 [soticlestat, (4-benzyl-4-hydroxypiperidin-1-yl)(2,4′-bipyridin-3-yl) methanone] | 3.39 nM | 
2 | O=C(C1CCN(c2cncnc2-c2ccc(F)cc2)CC1)N1CC(F)C1 [T-008, (3-fluoroazetidin-1-yl){1-[4-(4-fluorophenyl)pyrimidin-5-yl]piperidin-4-yl}methanone] |  | 14 ± 1 nM

From article PMC8921165, “Preclinical characterization of [^18F]T-008, a novel PET imaging radioligand for cholesterol 24-hydroxylase” (European Journal of Nuclear Medicine and Molecular Imaging, 2021)
